According to publication PMC10502144, “Anti-methicillin-resistant Staphylococcus aureus activity and safety evaluation of 14-O-[(5-ethoxycarbonyl-4,6-dimethylpyrimidine-2-yl) thioacetyl] mutilin (EDT)” (Scientific Reports, 2023):
Counter-ions that a name gives are not always drawn. Like-named read-outs stand apart in the source and are kept apart here.

Key:
[1] = test system: CYP3A4; details: cited from earlier work
[2] = test system: clinical isolates of MRSA; experiment: MIC by broth serial-dilution against 48 clinical isolates of MRSA; format: cell-based, methicillin-resistant Staphylococcus aureus; details: Staphylococcus aureus; for MIC: MRSA
Method: The tests against 48 clinical isolates of MRSA from dairy farms in 4 different provinces in China[37] were conducted in triplicate, using broth serial-dilution method in 96-well plates according to CLSI reference methods. Briefly, EDT and tiamulin fumarate used as referent drug were dissolved in 25% dimethyl sulfoxide (DMSO) to a solution with concentration of 64 μg/mL. The obtained 100 μL solutions were then added into the first column of the 96-well plate, and diluted to the tenth well with serial twofold dilutions. The last two wells were used as positive controls. The 100 μL bacterial suspension was diluted in MHB to give a final organism density of to 10^5 ~ 10^6 colony-forming unit (CFU) per 1 mL and added to all the wells, followed by incubating at 37 °C for 24 h. […] The results were expressed as an average of the MICs obtained from three independent experiments.

C=C[C@]1(C)C[C@@H](OC(=O)CSCCN(CC)CC)[C@]2(C)[C@H](C)CC[C@]3(CCC(=O)[C@H]32)[C@@H](C)[C@@H]1O [tiamulin, Tiamulin fumarate, reference compound]
IC50 [1]: 1.6 µM | MIC ([2]; range over 48 clinical isolates of MRSA, read-out: MIC values against 48 strains): 0.125 to 1 µg/mL | MIC ([2]; strain CX1, read-out: MIC): 0.5 µg/mL | MIC ([2]; strain CX2, read-out: MIC): 0.5 µg/mL | MIC ([2]; strain CX5, read-out: MIC): 0.5 µg/mL | MIC ([2]; strain CX6, read-out: MIC): 0.5 µg/mL | MIC ([2]; strain CX7, read-out: MIC): 0.5 µg/mL | MIC ([2]; strain CX9, read-out: MIC): 1 µg/mL | MIC ([2]; strain HG1, read-out: MIC): 0.25 µg/mL | MIC ([2]; strain HG2, read-out: MIC): 0.5 µg/mL | MIC ([2]; strain HG3, read-out: MIC): 0.5 µg/mL | MIC ([2]; strain HG4, read-out: MIC): 0.5 µg/mL | MIC ([2]; strain HG5, read-out: MIC): 0.5 µg/mL | MIC ([2]; strain HG6, read-out: MIC): 0.5 µg/mL | MIC ([2]; strain HG7, read-out: MIC): 0.5 µg/mL | MIC ([2]; strain QY4, read-out: MIC): 0.5 µg/mL | MIC ([2]; strain QY5, read-out: MIC): 0.5 µg/mL | MIC ([2]; strain QY6, read-out: MIC): 0.5 µg/mL | MIC ([2]; strain QY8, read-out: MIC): 0.5 µg/mL | MIC ([2]; strain QY10, read-out: MIC): 0.5 µg/mL | MIC ([2]; strain SH3, read-out: MIC): 0.5 µg/mL | MIC ([2]; strain SH4, read-out: MIC): 0.5 µg/mL | MIC ([2]; strain SH6, read-out: MIC): 0.5 µg/mL | MIC ([2]; strain SH7, read-out: MIC): 0.5 µg/mL | MIC ([2]; strain SH8, read-out: MIC): 0.25 µg/mL | MIC ([2]; strain SH9, read-out: MIC): 0.5 µg/mL | MIC ([2]; strain SH10, read-out: MIC): 0.5 µg/mL | MIC ([2]; strain SH11, read-out: MIC): 0.5 µg/mL | MIC ([2]; strain SH12, read-out: MIC): 0.5 µg/mL | MIC ([2]; strain SH13, read-out: MIC): 0.5 µg/mL | MIC ([2]; strain SH14, read-out: MIC): 0.125 µg/mL | MIC ([2]; strain SH15, read-out: MIC): 0.5 µg/mL | MIC ([2]; strain SX5, read-out: MIC): 0.5 µg/mL | MIC ([2]; strain SX6, read-out: MIC): 1 µg/mL | MIC ([2]; strain SX7, read-out: MIC): 0.5 µg/mL | MIC ([2]; strain SX8, read-out: MIC): 0.5 µg/mL | MIC ([2]; strain SX9, read-out: MIC): 0.5 µg/mL | MIC ([2]; strain SX10, read-out: MIC): 0.5 µg/mL | MIC ([2]; strain SX16, read-out: MIC): 1 µg/mL | MIC ([2]; strain SX17, read-out: MIC): 0.5 µg/mL | MIC ([2]; strain SX18, read-out: MIC): 0.5 µg/mL | MIC ([2]; strain ZY1, read-out: MIC): 0.5 µg/mL | MIC ([2]; strain ZY2, read-out: MIC): 0.5 µg/mL | MIC ([2]; strain ZY3, read-out: MIC): 0.25 µg/mL | MIC ([2]; strain ZY4, read-out: MIC): 0.5 µg/mL | MIC ([2]; strain ZY5, read-out: MIC): 0.5 µg/mL | MIC ([2]; strain ZY6, read-out: MIC): 1 µg/mL | MIC ([2]; strain ZY7, read-out: MIC): 0.5 µg/mL | MIC ([2]; strain ZY8, read-out: MIC): 1 µg/mL | MIC ([2]; strain ZY9, read-out: MIC): 0.25 µg/mL | inhibition at 0.0625 µg/mL ([2]; at 0.0625 µg/mL, 48 clinical isolates of MRSA, read-out: strains inhibited): 0%
